Measurements reported in EP2931723B1, “NEW BICYCLIC COMPOUNDS AND THEIR USE AS ANTIBACTERIAL AGENTS AND -LACTAMASE INHIBITORS” (Fedora Pharmaceuticals Inc., priority 2012, dated 2014).

Columns and labels:
Assay in all cases: MIC, antibacterial and synergistic activity
Assay type in all cases: cell-based
E.coli JMI 4103 = E.coli JMI 4103 (KPC-2, Tem-1, CMY-Type)
E. coli ATCC 25922 = E. coli ATCC 25922 (Wt)
K. pneumo JMI 4088 [1] = details: K. pneumo JMI 4088 (KPC-3 (Cpase)); substance alone
E. coli JMI 4080 = test system: E. coli JMI 4080
E. coli JMI 10767 [2] = details: E. coli JMI 10767 (Wt)
E. cloacae JMI 36 = E. cloacae JMI 36 (P99)
K. pneumo JMI 2674 [3] = details: K. pneumo JMI 2674 (CTX-M15 (ESBL)); substance alone
E. coli JMI 10768 [4] = details: E. coli JMI 10768 (CTX-M15 (Weak ESBL)); Meropenem + inhibitor at 4 µg/mL
K. pneumo JMI 2681 = K. pneumo JMI 2681 (Oxa-48 (Cpase))
P. aerug JMI 149 = P. aerug JMI 149 (Bla+++D+)
K. pneumo JMI 2673 [5] = details: K. pneumo JMI 2673 (CTX-M14 (ESBL)); substance alone
A. baumanii JMI 2659 = A. baumanii JMI 2659 (Ges-14 (Cpase))
K. pneumo JMI 4088 [6] = details: K. pneumo JMI 4088 (KPC-3 (Cpase))
Protocol: (§1) In the Tables 10 - 12, compounds herein disclosed were tested in combination with various antibiotics against metallo β-lactamase producing bacteria. Table 3: Synergy of the inhibitor Ex. 1 (4 µg/mL) in combination with antibiotics

K.pneumo JMI 4109 = K.pneumo JMI 4109 (SHV-1, SHV-12)
Protocol: as §1

E. coli JMI 10767 [7] = details: E. coli JMI 10767 (Wt); remark: listed apart in the source
Protocol: as §1

K. pneumo JMI 2674 [8] = details: K. pneumo JMI 2674 (CTX-M15 (ESBL))
Protocol: as §1

E. coli JMI 2665 = test system: E. coli JMI 2665
Protocol: as §1

K. pneumo JMI 2673 [9] = details: K. pneumo JMI 2673 (CTX-M14 (ESBL))
Protocol: as §1

E. coli JMI 10768 [10] = details: E. coli JMI 10768 (CTX-M15 (Weak ESBL))
Protocol: as §1

E. coli JMI 2671 = test system: E. coli JMI 2671
Protocol: as §1

P. aerug JMI 2686 = P. aerug JMI 2686 (KPC-2 (Cpase))
Protocol: as §1

K. pneumo JMI 2699 = K. pneumo JMI 2699 (VIM-1, CTX-M3)
Protocol: as §1

E. coli JMI 10770 = E. coli JMI 10770 (CTX-M15 (Hyper ESBL))
Protocol: as §1

[11] = Aztreonam + inhibitor at 4 µg/mL
[12] = Ceftazidime + inhibitor at 4 µg/mL
[13] = Meropenem + inhibitor at 4 µg/mL

SMILES: CCC(=O)NNC(=O)[C@@H]1CC[C@@H]2CN1C(=O)N2OS(=O)(=O)O [Ex. 8, (2S,5R)-7-oxo-N'-propanoyl-6-(sulfooxy)-1,6-diazabicyclo[3.2.1]octane-2-carbohydrazide]
- MIC Aztreonam + inhibitor (E.coli JMI 4103; [11]): ≤0.062 µg/mL
- MIC Ceftazidime + inhibitor (E.coli JMI 4103; [12]): ≤0.25 µg/mL
- MIC Meropenem + inhibitor (E.coli JMI 4103; [13]): ≤0.0312 µg/mL
- MIC (E.coli JMI 4103; Escherichia coli, JMI4103, substance alone): 4 µg/mL
- MIC Aztreonam + inhibitor (E. coli ATCC 25922; [11]): ≤0.0625 µg/mL
- MIC Ceftazidime + inhibitor (E. coli ATCC 25922; [12]): ≤0.25 µg/mL
- MIC Meropenem + inhibitor (E. coli ATCC 25922; [13]): ≤0.0312 µg/mL
- MIC (E. coli ATCC 25922; Escherichia coli, ATCC25922, substance alone): 16 µg/mL
- MIC (K. pneumo JMI 4088 [1]): > 16 µg/mL
- MIC Aztreonam + inhibitor (E. coli JMI 4080; E. coli JMI 4080 (Tem-10), Aztreonam + inhibitor at 4 µg/mL): ≤0.062 µg/mL
- MIC Ceftazidime + inhibitor (E. coli JMI 4080; E. coli JMI 4080 (Tem-10), Ceftazidime + inhibitor at 4 µg/mL): ≤0.25 µg/mL
- MIC Meropenem + inhibitor (E. coli JMI 4080; E. coli JMI 4080 (Tem-10), Meropenem + inhibitor at 4 µg/mL): ≤0.0312 µg/mL
- MIC (E. coli JMI 4080; Escherichia coli, JMI4080, E. coli JMI 4080 (Tem-10), substance alone): 4 µg/mL
- MIC Meropenem + inhibitor (E. coli JMI 10767 [2]; [13]): ≤0.0312 µg/mL
- MIC (E. coli JMI 10767 [2]; Escherichia coli, JMI10767, substance alone): > 16 µg/mL
- MIC Aztreonam + inhibitor (E. cloacae JMI 36; [11]): 0.125 µg/mL
- MIC Ceftazidime + inhibitor (E. cloacae JMI 36; [12]): 0.5 µg/mL
- MIC Meropenem + inhibitor (E. cloacae JMI 36; [13]): 0.25 µg/mL
- MIC (E. cloacae JMI 36; Enterobacter cloacae, JMI36, substance alone, read-out: MIC): > 16 µg/mL
- MIC (K. pneumo JMI 2674 [3]): > 16 µg/mL
- MIC Meropenem + inhibitor (E. coli JMI 10768 [4]): ≤0.0312 µg/mL
- MIC Aztreonam + inhibitor (K. pneumo JMI 2681; [11]): 0.125 µg/mL
- MIC Ceftazidime + inhibitor (K. pneumo JMI 2681; [12]): ≤0.25 µg/mL
- MIC Meropenem + inhibitor (K. pneumo JMI 2681; [13]): 0.5 µg/mL
- MIC (K. pneumo JMI 2681; substance alone, read-out: MIC): > 16 µg/mL
- MIC Aztreonam + inhibitor (P. aerug JMI 149; [11]): >4 µg/mL
- MIC Ceftazidime + inhibitor (P. aerug JMI 149; [12]): >16 µg/mL
- MIC Meropenem + inhibitor (P. aerug JMI 149; [13]): 0.5 µg/mL
- MIC (P. aerug JMI 149; substance alone, read-out: MIC): > 16 µg/mL
- MIC (K. pneumo JMI 2673 [5]): > 16 µg/mL
- MIC Aztreonam + inhibitor (A. baumanii JMI 2659; [11]): >4 µg/mL
- MIC Ceftazidime + inhibitor (A. baumanii JMI 2659; [12]): >16 µg/mL
- MIC Meropenem + inhibitor (A. baumanii JMI 2659; [13]): >2 µg/mL
- MIC (A. baumanii JMI 2659; Acinetobacter baumannii, JMI2659, substance alone, read-out: MIC): > 16 µg/mL
- MIC Aztreonam + inhibitor (K. pneumo JMI 4088 [6]; [11]): 0.125 µg/mL
- MIC Ceftazidime + inhibitor (K. pneumo JMI 4088 [6]; [12]): 0.5 µg/mL
- MIC Meropenem + inhibitor (K. pneumo JMI 4088 [6]; [13]): 0.5 µg/mL
- MIC Aztreonam + inhibitor (K.pneumo JMI 4109; [11]): ≤0.062 µg/mL
- MIC Ceftazidime + inhibitor (K.pneumo JMI 4109; [12]): ≤0.25 µg/mL
- MIC Meropenem + inhibitor (K.pneumo JMI 4109; [13]): ≤0.0312 µg/mL
- MIC Aztreonam + inhibitor (E. coli JMI 10767 [7]; [11]): ≤0.062 µg/mL
- MIC Ceftazidime + inhibitor (E. coli JMI 10767 [7]; [12]): ≤0.25 µg/mL
- MIC Aztreonam + inhibitor (K. pneumo JMI 2674 [8]; [11]): ≤0.062 µg/mL
- MIC Ceftazidime + inhibitor (K. pneumo JMI 2674 [8]; [12]): ≤0.25 µg/mL
- MIC Meropenem + inhibitor (K. pneumo JMI 2674 [8]; [13]): 0.062 µg/mL
- MIC Aztreonam + inhibitor (E. coli JMI 2665; E. coli JMI 2665 (CMY-2 (Plasmid Cpase)), Aztreonam + inhibitor at 4 µg/mL): ≤0.062 µg/mL
- MIC Ceftazidime + inhibitor (E. coli JMI 2665; E. coli JMI 2665 (CMY-2 (Plasmid Cpase)), Ceftazidime + inhibitor at 4 µg/mL): ≤0.25 µg/mL
- MIC (E. coli JMI 2665; Escherichia coli, JMI2665): 4 µg/mL
- MIC Aztreonam + inhibitor (K. pneumo JMI 2673 [9]; [11]): ≤0.062 µg/mL
- MIC Ceftazidime + inhibitor (K. pneumo JMI 2673 [9]; [12]): ≤0.25 µg/mL
- MIC Meropenem + inhibitor (K. pneumo JMI 2673 [9]; [13]): ≤0.0312 µg/mL
- MIC Aztreonam + inhibitor (E. coli JMI 10768 [10]; [11]): ≤0.062 µg/mL
- MIC Ceftazidime + inhibitor (E. coli JMI 10768 [10]; [12]): ≤0.25 µg/mL
- MIC (E. coli JMI 10768 [10]; Escherichia coli, JMI10768, substance alone): > 16 µg/mL
- MIC Aztreonam + inhibitor (E. coli JMI 2671; E. coli JMI 2671 (VIM-19 (Cpase)), Aztreonam + inhibitor at 4 µg/mL): ≤0.062 µg/mL
- MIC Ceftazidime + inhibitor (E. coli JMI 2671; E. coli JMI 2671 (VIM-19 (Cpase)), Ceftazidime + inhibitor at 4 µg/mL): 0.5 µg/mL
- MIC Meropenem + inhibitor (E. coli JMI 2671; E. coli JMI 2671 (VIM-19 (Cpase)), Meropenem + inhibitor at 4 µg/mL): 1 µg/mL
- MIC (E. coli JMI 2671; Escherichia coli, JMI2671, E. coli JMI 2671 (VIM-19 (Cpase)), substance alone): > 16 µg/mL
- MIC Aztreonam + inhibitor (P. aerug JMI 2686; [11]): >4 µg/mL
- MIC Ceftazidime + inhibitor (P. aerug JMI 2686; [12]): >16 µg/mL
- MIC Meropenem + inhibitor (P. aerug JMI 2686; [13]): >2 µg/mL
- MIC Aztreonam + inhibitor (K. pneumo JMI 2699; [11]): ≤0.062 µg/mL
- MIC Ceftazidime + inhibitor (K. pneumo JMI 2699; [12]): ≤0.25 µg/mL
- MIC Meropenem + inhibitor (K. pneumo JMI 2699; [13]): 0.125 µg/mL
- MIC (K. pneumo JMI 2699; substance alone, read-out: MIC): > 16 µg/mL
- MIC Aztreonam + inhibitor (E. coli JMI 10770; [11]): ≤0.062 µg/mL
- MIC Ceftazidime + inhibitor (E. coli JMI 10770; [12]): ≤0.25 µg/mL
- MIC Meropenem + inhibitor (E. coli JMI 10770; [13]): ≤0.0312 µg/mL
